Measured values published in US20050197350A1, “Novel quinoline, tetrahydroquinazoline, and pyrimidine derivatives and methods of treatment related to the use thereof” (TAISHO PHARMACEUTICAL CO., LTD., priority 2003, published 2005).
Read-outs that look alike come from different tables or passages of the source.

System: MCH receptors
Experiment: MCH receptor activity class (method not given)
[1] = class by percent of control at 10^-7 M or IC50
[2] = class by percent of control at 10^−7 M or IC50
[3] = MCH receptor activity class 1-3 (percent of control at 10^-7 M or IC50)
[4] = activity class per percent of control at 10^-7 M or IC50
[5] = class 1-3 by percent of control at 10^-7 M or IC50
[6] = activity class 1-3: percent of control at 10^-7 M or IC50
[7] = MCH receptor, class by percent of control at 10^-7 M or IC50

For `CN(C)c1nc(N[C@H]2CC[C@@H](NC(=O)c3ccc(I)o3)CC2)nc2c1CCCC2` [compound 956], the class [1] was 1 (Class 1: The value of percent of control at 10^−7 M was less than 40% or the value of IC50 was less than 50 nM.).

For `Cc1cnc(N[C@H]2CC[C@@H](CNC(=O)c3cccc(OC(F)(F)F)c3)CC2)nc1N(C)C` [compound 2699, N-[(cis-4-{[4-(dimethylamino)-5-methylpyrimidin-2-yl]amino}cyclohexyl)methyl]-3-(trifluoromethoxy)benzamide], the class [2] was 2 (Class 2: The value of percent of control at 10^−7 M was from 40% to 60% or the value of IC′50 was from 50 nM to 200 nM.).

In the case of `CN(C)c1nc(N[C@H]2CC[C@@H](CNC(=O)Nc3c(Br)cc(Br)cc3Br)CC2)nc2c1CCCC2` [compound 2462], the class [3] is reported as 1 (Class 1: The value of percent of control at 10^−7 M was less than 40% or the value of IC50 was less than 50 nM.).

In the case of `Cc1ccc(C(=O)CC(SCc2ccc(Cl)cc2)C(=O)N[C@H]2CC[C@@H](Nc3nc4c(c(N(C)C)n3)CCCC4)CC2)cc1` (relative stereo) [compound 1018], the class [4] is reported as 2 (Class 2: The value of percent of control at 10^−7 M was from 40% to 60% or the value of IC′50 was from 50 nM to 200 nM.).

With `Cc1ccccc1C(=O)NC[C@H]1CC[C@@H](Nc2nccc(N(C)C)n2)CC1` [compound 441] the class [5] was 3 (Class 3 The value of percent of control at 10^−7 M was more than 60% or the value of IC50 was more than 200 nM.).

With `Cc1cc(C)c(CNC[C@H]2CC[C@@H](Nc3cc(N(C)C)c4ccccc4n3)CC2)c(C)c1` [compound 1181] the class [1] was 3 (Class 3 The value of percent of control at 10^−7 M was more than 60% or the value of IC50 was more than 200 nM.).

In the case of `CN(C)c1ccnc(N[C@H]2CC[C@@H](NC(=O)Oc3ccc4ccccc4c3)CC2)n1` [compound 1629], the class [6] is reported as 3 (Class 3 The value of percent of control at 10^−7 M was more than 60% or the value of IC50 was more than 200 nM.).

With `CN(C)c1nc(N[C@H]2CC[C@@H](NCc3c[nH]c4ccccc34)CC2)nc2c1CCCC2` [compound 1328] the class [1] was 3 (Class 3 The value of percent of control at 10^−7 M was more than 60% or the value of IC50 was more than 200 nM.).

`CN(C)c1ccnc(N[C@H]2CC[C@@H](NC(=O)Nc3ccc(C#N)cc3)CC2)n1` [compound 2208] was tested, and the class [1] was 3 (Class 3 The value of percent of control at 10^−7 M was more than 60% or the value of IC50 was more than 200 nM.).

In the case of `CN(C)c1cc(N[C@H]2CC[C@@H](NC(=O)c3ccc(Br)cc3)CC2)nc2ccccc12` [compound 22], the class [7] is reported as 2 (Class 2: The value of percent of control at 10^−7 M was from 40% to 60% or the value of IC′50 was from 50 nM to 200 nM.).

`CN(C)c1cc(N[C@H]2CC[C@@H](CNCc3ccc(O)cc3)CC2)nc2ccccc12` [compound 1154] was tested, and the class [4] was 3 (Class 3 The value of percent of control at 10^−7 M was more than 60% or the value of IC50 was more than 200 nM.).

`CCOc1ccc2ccccc2c1C(=O)N[C@H]1CC[C@@H](Nc2nccc(N(C)C)n2)CC1` [compound 347] was tested, and the class [1] was 3 (Class 3 The value of percent of control at 10^−7 M was more than 60% or the value of IC50 was more than 200 nM.).

With `Cc1cnc(N[C@H]2CC[C@@H](C(=O)N[C@H](C)c3ccccc3)CC2)nc1N(C)C` [compound 2771, cis-4-{[4-(dimethylamino)-5-methylpyrimidin-2-yl]amino}-N-[(1R)-1-phenylethyl]cyclohexanecarboxamide] the class [2] was 2 (Class 2: The value of percent of control at 10^−7 M was from 40% to 60% or the value of IC′50 was from 50 nM to 200 nM.).

For `CN(C)c1cc(N[C@H]2CC[C@@H](NC(=O)c3cccnc3Sc3ccccc3)CC2)nc2ccccc12` [compound 136], the class [7] was 3 (Class 3 The value of percent of control at 10^−7 M was more than 60% or the value of IC50 was more than 200 nM.).

For `CN(C)c1nc(N[C@H]2CC[C@@H](CNC(=O)Cc3ccccc3OC(F)(F)F)CC2)nc2c1CCCC2` [compound 1081], the class [4] was 3 (Class 3 The value of percent of control at 10^−7 M was more than 60% or the value of IC50 was more than 200 nM.).

In the case of `COc1cccc(N(C)C(=O)N[C@H]2CC[C@@H](Nc3ncc(C)c(N(C)C)n3)CC2)c1` [compound 3028, N′-(cis-4-{[4-(dimethylamino)-5-methylpyrimidin-2-yl]amino}cyclohexyl)-N-(3-methoxyphenyl)-N-methylurea], the class [2] is reported as 1 (Class 1: The value of percent of control at 10^−7 M was less than 40% or the value of IC50 was less than 50 nM.).

For `Cc1ccc(CNC[C@H]2CC[C@@H](Nc3nccc(N(C)C)n3)CC2)cc1I` [compound 1537], the class [6] was 3 (Class 3 The value of percent of control at 10^−7 M was more than 60% or the value of IC50 was more than 200 nM.).

`Cc1cnc(N[C@H]2CC[C@@H](CNC(=O)c3cccnc3Oc3ccccc3F)C2)nc1N(C)C` [compound 3015] was tested, and the class [2] was 1 (Class 1: The value of percent of control at 10^−7 M was less than 40% or the value of IC50 was less than 50 nM.).

In the case of `CN(C)c1cc(N[C@H]2CC[C@@H](NC(=O)C3CCc4ccccc4C3)CC2)nc2ccccc12` (relative stereo) [compound 778], the class [1] is reported as 3 (Class 3 The value of percent of control at 10^−7 M was more than 60% or the value of IC50 was more than 200 nM.).

For `Cc1onc(-c2c(F)cccc2Cl)c1C(=O)N[C@H]1CC[C@@H](Nc2nc3c(c(N(C)C)n2)CCCC3)CC1` [compound 536, 3-(2-chloro-6-fluorophenyl)-N-(cis-4-{[4-(dimethylamino)-5,6,7,8-tetrahydroquinazolin-2-yl]amino}cyclohexyl)-5-methylisoxazole-4-carboxamide], the class [5] was 1 (Class 1: The value of percent of control at 10^−7 M was less than 40% or the value of IC50 was less than 50 nM.).

In the case of `COc1cc(NC(=S)N[C@H]2CC[C@@H](Nc3nccc(N(C)C)n3)CC2)c(OC)cc1Cl` [compound 2353], the class [3] is reported as 3 (Class 3 The value of percent of control at 10^−7 M was more than 60% or the value of IC50 was more than 200 nM.).

For `Cc1cc(N(C)C)nc(N[C@H]2CC[C@@H](NC(=O)c3ccc(OC(F)(F)F)cc3)CC2)n1` [compound 2989, N-(cis-4-{[4-(dimethylamino)-6-methylpyrimidin-2-yl]amino}cyclohexyl)-4-(trifluoromethoxy)benzamide], the class [2] was 3 (Class 3 The value of percent of control at 10^−7 M was more than 60% or the value of IC50 was more than 200 nM.).

For `COc1ccc(F)c(CNC[C@H]2CC[C@@H](Nc3cc(N(C)C)c4ccccc4n3)CC2)c1` [compound 1164], the class [1] was 3 (Class 3 The value of percent of control at 10^−7 M was more than 60% or the value of IC50 was more than 200 nM.).

`CCCCNC(=S)N[C@H]1CC[C@@H](Nc2nc3c(c(N(C)C)n2)CCCC3)CC1` [compound 1930] was tested, and the class [7] was 3 (Class 3 The value of percent of control at 10^−7 M was more than 60% or the value of IC50 was more than 200 nM.).

In the case of `C[C@@H](CNC[C@H]1CC[C@@H](Nc2nc3c(c(N(C)C)n2)CCCC3)CC1)N(Cc1ccccc1)Cc1ccccc1` [compound 1509], the class [1] is reported as 3 (Class 3 The value of percent of control at 10^−7 M was more than 60% or the value of IC50 was more than 200 nM.).

`Cc1cnc(N[C@H]2CC[C@@H](CNC(=O)c3ccc(Br)cc3)CC2)nc1N(C)C` [compound 2702] was tested, and the class [2] was 1 (Class 1: The value of percent of control at 10^−7 M was less than 40% or the value of IC50 was less than 50 nM.).

For `CN(C)c1nc(N[C@H]2CC[C@@H](NC(=O)Cc3c[nH]c4ccccc34)CC2)nc2c1CCCC2` [compound 986, N-(cis-4-{[4-(diniethylamino)-5,6,7,8-tetrahydroquinazolin-2-yl]amino}cyclohexyl)-2-(1H-indol-3-yl)acetamide], the class [4] was 1 (Class 1: The value of percent of control at 10^−7 M was less than 40% or the value of IC50 was less than 50 nM.).

`CN(C)c1ccc(NC(=S)N[C@H]2CC[C@@H](Nc3nc4c(c(N(C)C)n3)CCCC4)CC2)cc1` [compound 2072] was tested, and the class [7] was 3 (Class 3 The value of percent of control at 10^−7 M was more than 60% or the value of IC50 was more than 200 nM.).

`CN(C)c1nc(N[C@H]2CC[C@@H](NC(=S)Nc3ccccc3OC(F)F)CC2)nc2c1CCCC2` [compound 1976] was tested, and the class [7] was 3 (Class 3 The value of percent of control at 10^−7 M was more than 60% or the value of IC50 was more than 200 nM.).

In the case of `CN(C)c1ccnc(N[C@H]2CC[C@@H](NC(=O)Cc3cccs3)CC2)n1` [compound 271], the class [1] is reported as 3 (Class 3 The value of percent of control at 10^−7 M was more than 60% or the value of IC50 was more than 200 nM.).

In the case of `CN(C)c1cc(N[C@H]2CC[C@@H](NC(=O)c3ccc(Br)o3)CC2)nc2ccccc12` [compound 694, 5-bromo-N-(cis-4-{[4-(dimethylamino)quinolin-2-yl]amino}cyclohexyl)-2-furamide], the class [1] is reported as 1 (Class 1: The value of percent of control at 10^−7 M was less than 40% or the value of IC50 was less than 50 nM.).

With `Cc1ccc(C(=O)N[C@H]2CC[C@@H](Nc3nccc(N(C)C)n3)CC2)cc1` [compound 269] the class [1] was 3 (Class 3 The value of percent of control at 10^−7 M was more than 60% or the value of IC50 was more than 200 nM.).

In the case of `Cc1ccc(C)c(NC(=S)N[C@H]2CC[C@@H](Nc3nc4c(c(N(C)C)n3)CCCC4)CC2)c1` [compound 2059], the class [7] is reported as 3 (Class 3 The value of percent of control at 10^−7 M was more than 60% or the value of IC50 was more than 200 nM.).

`Cc1cc(N(C)C)nc(N[C@H]2CC[C@@H](NC(=O)c3cccc(Cl)c3)CC2)n1` [Example 2567, 3-chloro-N-(cis-4-{[4-(dimethylamino)-6-methylpyrimidin-2-yl]amino}cyclohexyl)benzamide] was tested, and the class was 1.

For `CN(C)c1nc(N[C@H]2CC[C@@H](NC(=S)Nc3ccc(Br)cc3Cl)CC2)nc2c1CCCC2` [compound 1751], the class [1] was 1 (Class 1: The value of percent of control at 10^−7 M was less than 40% or the value of IC50 was less than 50 nM.).

In the case of `CN(C)c1nc(N[C@H]2CC[C@@H](NC(=O)c3cccnc3Sc3ccccc3)CC2)nc2c1CCCC2` [compound 572], the class [5] is reported as 3 (Class 3 The value of percent of control at 10^−7 M was more than 60% or the value of IC50 was more than 200 nM.).

With `CN(C)c1ccnc(N[C@H]2CC[C@@H](NC(=O)c3cc(Cl)ccc3O)CC2)n1` [compound 919] the class [1] was 3 (Class 3 The value of percent of control at 10^−7 M was more than 60% or the value of IC50 was more than 200 nM.).
